Results: BindingDB's records for patent US20240343694 (Korea Reserarch Institute of Chemical Technology, 2024)

Columns and labels:
[1] = target: T1, Epidermal growth factor receptor [1-763,'FHEA',764-1210] (UniProt P00533); experiment: Inhibitory Activity of Compounds Against EGFR Mutant Enzyme
T1 construct: 1-763,'FHEA',764-1210
Experimental: (§1) The activity of the compounds of the present invention against EGFR mutant enzymes was measured using the HTRF system purchased from Cisbio as follows. For an EGFR mutant enzyme, the EGFR del19 enzyme was a recombinant protein purchased from Carna Biosciences, and the EGFR A763_Y764insFHEA enzyme was a recombinant protein purchased from SignalChem, respectively.The composition of the assay buffer used for activity measurement was 50 mM tris-HCl pH 7.5, 100 mM NaCl, 7.5 mM MgCl2, 3 mM KCl, 0.01% tween 20, 0.1% BSA, and 1 mM DTT. An enzymatic reaction was performed using a peptide substrate labeled with ATP at a concentration of […] and biotin at a concentration of […]. The analysis of the inhibitory effect of the compounds on EGFR activity was performed according to the following method.Component 1:4 μL of EGFR mutant enzymeComponent 2:2 μL of compound solutionComponent 3:4 μL of ATP and a biotin labeled peptideThe enzyme reaction begins by first mixing component 1 and component 2 and then adding component 3 thereto. After the reaction at 37° C. for 2 hours, […] of a measurement solution consisting of streptavidin-XL665 and a europium-labeled anti-phosphotyrosine antibody purchased from Cisbio was added to the enzyme reaction solution and reacted at room temperature for 1 hour. Finally, the ratio of fluorescence values at 615 nm and 665 nm was measured using Perkin-Elmer's Envision instrument to calculate enzyme activity and confirm the inhibitory ability of the compounds.

[2] = target: T2, Epidermal growth factor receptor [DEL746-750] (Homo sapiens, UniProt P00533); experiment: as above
T2 construct: gene EGFR
T2 sequence (P00533 with tags, fused parts or gaps DEL746-750 limits assumed, stated change not applied): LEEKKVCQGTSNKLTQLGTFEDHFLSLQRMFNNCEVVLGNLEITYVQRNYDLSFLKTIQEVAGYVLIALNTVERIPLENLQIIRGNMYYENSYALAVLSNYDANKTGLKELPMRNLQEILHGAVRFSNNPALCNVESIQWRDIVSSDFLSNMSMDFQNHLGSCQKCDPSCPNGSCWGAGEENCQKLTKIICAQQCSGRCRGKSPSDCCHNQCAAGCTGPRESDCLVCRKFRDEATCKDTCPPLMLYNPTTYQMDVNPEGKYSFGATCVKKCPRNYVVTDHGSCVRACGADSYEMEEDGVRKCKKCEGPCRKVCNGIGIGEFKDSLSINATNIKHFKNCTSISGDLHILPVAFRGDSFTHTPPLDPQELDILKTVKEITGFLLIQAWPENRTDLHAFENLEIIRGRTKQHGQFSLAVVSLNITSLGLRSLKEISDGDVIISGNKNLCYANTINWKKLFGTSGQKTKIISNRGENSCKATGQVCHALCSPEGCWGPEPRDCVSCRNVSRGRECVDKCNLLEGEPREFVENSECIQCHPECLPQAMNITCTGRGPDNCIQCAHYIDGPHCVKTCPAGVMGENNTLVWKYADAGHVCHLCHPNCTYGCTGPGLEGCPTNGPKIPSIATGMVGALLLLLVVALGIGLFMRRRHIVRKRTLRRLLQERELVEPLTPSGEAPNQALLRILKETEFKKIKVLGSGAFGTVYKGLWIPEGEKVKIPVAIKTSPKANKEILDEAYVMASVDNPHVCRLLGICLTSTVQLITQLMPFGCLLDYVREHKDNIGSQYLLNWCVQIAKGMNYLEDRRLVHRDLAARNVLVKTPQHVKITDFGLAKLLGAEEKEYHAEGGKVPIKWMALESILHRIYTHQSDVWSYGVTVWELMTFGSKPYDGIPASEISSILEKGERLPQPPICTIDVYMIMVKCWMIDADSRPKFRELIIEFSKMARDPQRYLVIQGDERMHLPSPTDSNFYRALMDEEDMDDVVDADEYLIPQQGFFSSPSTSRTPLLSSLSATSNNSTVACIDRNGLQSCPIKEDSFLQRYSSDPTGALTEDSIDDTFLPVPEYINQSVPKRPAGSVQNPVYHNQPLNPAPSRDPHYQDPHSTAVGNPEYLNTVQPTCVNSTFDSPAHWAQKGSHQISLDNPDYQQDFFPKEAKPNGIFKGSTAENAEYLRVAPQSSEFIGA
Experimental: as §1

[3] = target: T3, Receptor tyrosine-protein kinase erbB-2 [1-775,'YVMA',776-1255] (Homo sapiens, UniProt P04626); experiment: Inhibitory Activity of Compounds Against HER2 A775_G776insYVMA mutant enzyme
T3 construct: 1-775,'YVMA',776-1255
T3 sequence (P04626 with tags, fused parts or gaps INS775YVMA limits assumed): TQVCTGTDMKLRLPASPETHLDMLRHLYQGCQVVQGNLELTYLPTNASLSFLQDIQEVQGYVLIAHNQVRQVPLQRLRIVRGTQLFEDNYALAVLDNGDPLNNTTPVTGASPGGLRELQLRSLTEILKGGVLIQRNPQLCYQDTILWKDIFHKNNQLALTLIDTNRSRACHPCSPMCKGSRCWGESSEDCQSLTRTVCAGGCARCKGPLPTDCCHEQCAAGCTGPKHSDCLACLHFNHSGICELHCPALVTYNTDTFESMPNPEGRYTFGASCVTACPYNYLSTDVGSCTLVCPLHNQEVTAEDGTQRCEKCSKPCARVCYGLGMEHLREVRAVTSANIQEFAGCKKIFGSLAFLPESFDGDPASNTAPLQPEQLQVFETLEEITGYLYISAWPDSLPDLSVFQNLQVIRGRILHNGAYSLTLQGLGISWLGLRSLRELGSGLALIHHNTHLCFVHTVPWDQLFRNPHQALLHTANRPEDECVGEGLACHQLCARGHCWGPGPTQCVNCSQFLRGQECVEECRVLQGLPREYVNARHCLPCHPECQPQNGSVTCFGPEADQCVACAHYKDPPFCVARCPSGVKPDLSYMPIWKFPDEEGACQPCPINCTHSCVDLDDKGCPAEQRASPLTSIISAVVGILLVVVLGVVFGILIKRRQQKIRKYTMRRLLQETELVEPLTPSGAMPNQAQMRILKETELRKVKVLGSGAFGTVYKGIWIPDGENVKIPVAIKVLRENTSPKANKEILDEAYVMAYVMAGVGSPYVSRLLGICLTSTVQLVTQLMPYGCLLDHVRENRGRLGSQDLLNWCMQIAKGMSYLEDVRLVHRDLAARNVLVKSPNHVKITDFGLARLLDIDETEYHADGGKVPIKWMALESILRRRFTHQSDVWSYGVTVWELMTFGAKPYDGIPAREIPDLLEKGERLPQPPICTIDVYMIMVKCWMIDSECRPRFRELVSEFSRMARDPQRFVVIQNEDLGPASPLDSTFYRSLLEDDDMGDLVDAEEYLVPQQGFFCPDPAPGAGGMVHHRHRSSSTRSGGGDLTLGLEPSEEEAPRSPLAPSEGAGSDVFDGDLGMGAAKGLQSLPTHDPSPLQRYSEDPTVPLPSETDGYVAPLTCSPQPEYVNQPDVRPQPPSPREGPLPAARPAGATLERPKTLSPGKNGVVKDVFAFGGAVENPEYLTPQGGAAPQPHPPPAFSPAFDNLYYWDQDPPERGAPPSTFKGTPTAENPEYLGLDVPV
Experimental: The activity of the compounds of the present invention against HER mutant enzymes was measured using the HTRF system purchased by Cisbio as follows. As a HER2 mutant enzyme, the HER2 A775_G776insYVMA mutant enzyme was used by purchasing a recombinant protein provided by Carna Biosciences.The composition of the assay buffer used for activity measurement was 50 mM tris-HCl pH 7.5, 100 mM NaCl, 7.5 mM MgCl2, 3 mM KCl, 0.01% tween 20, 0.1% BSA, and 1 mM DTT. In addition thereto, the enzymatic reaction was performed using a peptide substrate labeled with ATP at a concentration of […] and biotin at a concentration of […]. The analysis of the activity inhibitory effect of the compounds on HER2 A775_G776insYVMA mutation was performed according to the following method.Component 1:4 μL of HER2 A775_G776insYVMA mutant enzymeComponent 2:2 μL of compound solutionComponent 3:4 μL of ATP and a biotin labeled peptideThe enzyme reaction begins by first mixing component 1 and component 2 and then adding component 3 thereto. After the reaction at 37° C. for 2 hours, […] of a measurement solution consisting of streptavidin-XL665 and a europium-labeled anti-phosphotyrosine antibody purchased from Cisbio was added to the enzyme reaction solution and reacted at room temperature for 1 hour. Finally, the ratio of fluorescence values at 615 nm and 665 nm was measured using Perkin-Elmer's Envision equipment to calculate enzyme activity and confirm the inhibitory ability of the compounds.

[4] = target: T4, Epidermal growth factor receptor [DEL746-750] (Homo sapiens, UniProt P00533, DEL746-750); experiment: Inhibitory Activity of Compounds Against EGFR Mutant Enzyme
T4 construct: gene EGFR
T4 sequence (P00533 with tags, fused parts or gaps DEL746-750 limits assumed): as the sequence (P00533 with tags, fused parts or gaps DEL746-750 limits assumed, stated change not applied) above
Experimental: as §1

T1 sequence (P00533 with tags, fused parts or gaps INS763FHEA limits assumed): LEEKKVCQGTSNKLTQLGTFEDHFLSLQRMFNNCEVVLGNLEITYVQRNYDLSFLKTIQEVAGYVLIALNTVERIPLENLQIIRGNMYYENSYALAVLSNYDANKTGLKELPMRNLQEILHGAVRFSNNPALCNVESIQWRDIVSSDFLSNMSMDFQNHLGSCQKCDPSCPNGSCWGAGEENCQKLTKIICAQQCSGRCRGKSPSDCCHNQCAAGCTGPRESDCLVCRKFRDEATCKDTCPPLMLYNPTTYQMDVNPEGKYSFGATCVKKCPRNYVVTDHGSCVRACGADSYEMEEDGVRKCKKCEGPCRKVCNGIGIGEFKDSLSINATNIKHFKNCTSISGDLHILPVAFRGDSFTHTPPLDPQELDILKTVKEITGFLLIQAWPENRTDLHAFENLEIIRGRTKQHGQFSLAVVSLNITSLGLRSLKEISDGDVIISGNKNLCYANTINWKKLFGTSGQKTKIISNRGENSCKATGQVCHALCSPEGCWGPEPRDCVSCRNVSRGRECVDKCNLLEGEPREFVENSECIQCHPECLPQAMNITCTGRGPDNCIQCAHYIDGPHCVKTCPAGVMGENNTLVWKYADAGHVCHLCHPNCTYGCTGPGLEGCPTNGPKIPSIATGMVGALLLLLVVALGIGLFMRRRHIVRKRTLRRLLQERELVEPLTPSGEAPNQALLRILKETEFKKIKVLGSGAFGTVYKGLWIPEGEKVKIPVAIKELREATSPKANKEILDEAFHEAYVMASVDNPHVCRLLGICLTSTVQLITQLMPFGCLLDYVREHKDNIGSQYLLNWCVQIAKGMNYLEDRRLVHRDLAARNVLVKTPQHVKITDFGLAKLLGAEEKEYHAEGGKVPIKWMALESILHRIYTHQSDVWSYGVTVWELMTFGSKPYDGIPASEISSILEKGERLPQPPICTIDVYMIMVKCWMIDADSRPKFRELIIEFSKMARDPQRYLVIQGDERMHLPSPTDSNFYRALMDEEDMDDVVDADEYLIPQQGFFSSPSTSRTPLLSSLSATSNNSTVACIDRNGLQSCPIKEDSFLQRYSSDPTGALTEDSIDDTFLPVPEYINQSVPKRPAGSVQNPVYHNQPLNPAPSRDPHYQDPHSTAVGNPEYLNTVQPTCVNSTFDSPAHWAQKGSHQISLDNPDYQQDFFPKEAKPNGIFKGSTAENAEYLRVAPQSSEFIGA

SMILES | IC50 [1] [nM] | IC50 [2] [nM] | IC50 [3] [nM] | IC50 [4] [nM]
CS(=O)(=O)N1CCc2cccc(Nc3nc(Cl)ncc3C#N)c21 [US20240343694, Example 70] | 4 | < 1 | 33 | –
C=CC(=O)Nc1cc(N)c(OC)cc1OCCN(C)C [US20240343694, Example 71] | 5 | < 1 | 61 | –
O=S1(=O)CCCN1c1ccccc1Nc1nc(Cl)ncc1Cl [US20240343694, Example 77] | < 1 | < 1 | 2 | –
O=S1(=O)CCCCN1c1ccccc1Nc1nc(Cl)ncc1Cl [US20240343694, Example 78] | < 1 | < 1 | 3 | –
C=CC(=O)Nc1cc(N)c(OC)cc1N(C)CCN1CCN(C)CC1 [US20240343694, Example 79] | < 1 | < 1 | 1 | –
C=CC(=O)Nc1cc(N)c(OC)cc1OCCN1CCOCC1 [US20240343694, Example 80] | < 1 | < 1 | 1 | –
C=CC(=O)Nc1cc(N)c(OC)cc1OCCN1CCCCC1 [US20240343694, Example 81] | < 1 | < 1 | < 1 | –
C=CC(=O)Nc1cc(N)c(OC)cc1N(C)CCN1CCC1 [US20240343694, Example 82] | < 1 | < 1 | 2 | –
CC(=O)Nc1c([N+](=O)[O-])ccc(C)c1C [US20240343694, Example 83] | 19 | 3 | 374 | –
CC(=O)N(C)c1c([N+](=O)[O-])ccc(C)c1C [US20240343694, Example 84] | 3 | 1 | 52 | –
CC(=O)N(C)c1c(N)ccc(C)c1C [US20240343694, Example 85] | 43 | 18 | 871 | –
CC(=O)N(C)c1c(Nc2nc(Cl)ncc2Cl)ccc(C)c1C [US20240343694, Example 86] | 20 | 2 | 157 | –
CC(=O)Nc1c(Nc2nc(Cl)ncc2Cl)ccc(C)c1C [US20240343694, Example 87] | 24 | 4 | 107 | –
CC(=O)N(C)c1c(C)cccc1Nc1nc(Cl)ncc1Cl [US20240343694, Example 88] | 2 | < 1 | 14 | –
CC(=O)Nc1c(C)cccc1Nc1nc(Cl)ncc1Cl [US20240343694, Example 89] | 77 | 20 | 479 | –

Further lines, results first:

IC50 [1] [nM] | IC50 [2] [nM] | IC50 [3] [nM] | IC50 [4] [nM] | SMILES
< 1 | < 1 | 3 | – | C=C(F)C(=O)Nc1cc(N)c(OC)cc1N(C)CCN(C)C [US20240343694, Example 64]
< 1 | < 1 | 15 | – | CS(=O)(=O)N1CCc2cccc(Nc3nc(Cl)ncc3Cl)c21 [US20240343694, Example 65]
< 1 | < 1 | 5 | – | CCS(=O)(=O)N1CCc2cccc(Nc3nc(Cl)ncc3Cl)c21 [US20240343694, Example 66]
< 1 | < 1 | 81 | – | C=CC(=O)Nc1cc(Nc2ncc(Cl)c(Nc3cccc4c3N(S(C)(=O)=O)CC4)n2)c(OC)cc1N(C)CCN(C)C(=O)OC(C)(C)C [US20240343694, Example 67]
< 1 | < 1 | 6 | – | COC(=O)c1cnc(Cl)nc1Nc1cccc2c1N(S(C)(=O)=O)CC2 [US20240343694, Example 68]
< 1 | – | 6 | < 1 | CC(C)OC(=O)c1cnc(Cl)nc1Nc1cccc2c1N(S(C)(=O)=O)CC2 [US20240343694, Example 69]
< 1 | < 1 | 5 | – | CS(=O)(=O)N1CCc2cccc(Nc3nc(Cl)ncc3C(F)(F)F)c21 [US20240343694, Example 73]
< 1 | < 1 | < 1 | – | CS(=O)(=O)n1ccc2cccc(Nc3nc(Cl)ncc3Cl)c21 [US20240343694, Example 74]
< 1 | < 1 | 3 | – | CN(c1c(Nc2nc(Cl)ncc2Cl)ccc2nccnc12)S(C)(=O)=O [US20240343694, Example 75]
< 1 | < 1 | 1 | – | CS(=O)(=O)Nc1c(Nc2nc(Cl)ncc2Cl)ccc2nccnc12 [US20240343694, Example 76]
